Article PMC4187030, “Effect of cyclodextrin complexation on phenylpropanoids’ solubility and antioxidant activity” (Beilstein Journal of Organic Chemistry, 2014)
Values after ≈ are worked out from the molar mass of the structure shown. Where two headings read alike, the source gives them in different places.

Experiments:
[1] = Phase solubility studies, HP-β-CD
Procedure: (§1) Phase solubility studies were carried out according to the method described by Higuchi and Connors. Excess amount of PP was added to 1 mL of CD solution at different concentrations ranging from 0 to 10 mM. The mixtures were shaken at 25 °C for 24 h then filtered through a 0.45 μm membrane filter. The concentration of PP in the filtrate was determined spectrophotometrically at the maximum wavelength corresponding to each PP. Phase solubility diagrams were obtained by plotting the solubility of PP as a function of CD concentration. Kf value of CD/PP inclusion complex was calculated from the linear segment of the phase–solubility diagrams using the following equation: […]
(§2) where S0 is the intrinsic solubility of PP in the absence of CD and the Slope is the slope of the phase–solubility profile. The solubilizing potential of CD was evaluated by the complexation efficiency (CE) parameter. CE equal the complex to free CD concentration ratio and was calculated from the slope of the phase solubility diagram: […]
(§3) where [CD/PP] is the concentration of dissolved inclusion complex and [CD] is the concentration of dissolved free CD. The CE can be used to calculate the PP:CD ratio as follows:
(§4) The correlation between the CE and the molecular weight of CD or guest allowed the determination of the increase in formulation bulk which can be calculated using the following equation: […]
(§5) where MWCD and MWPP are the molecular weight values of CD and PP, respectively.

[2] = Phase solubility studies, CRYSMEB
Procedure: as §1, §2, §3, §4, §5

[3] = Formation constants (Kf) by UV–visible spectral displacement method, β-CD; format: physicochemical; conditions: UV–visible spectral displacement with MO (MO itself by direct titration), SD <10%
Procedure: (§6) Formation constant (Kf) values were calculated using a UV–visible spectral displacement method. This method implies first the characterization of the inclusion complexes between CDs and the competitor (methyl orange, MO). The results are summarized in Table 1 in comparison with values from the literature.
(§7) The UV–visible competition method with methyl orange (MO) as competitor was carried out according to the method described by Landy et al.. In order to calculate CD/PP Kf values, CD/MO inclusion complexes were firstly characterized by a direct titration method. Then, a spectral displacement method was applied by adding PP to a solution containing constant concentration of MO and CD. The addition of PP implied an absorbance increment leading to the calculation of CD/PP Kf values. Spectra were recorded between 520–530 nm for a MO concentration fixed at 0.1 mM. This wavelength range corresponds to the optimal spectral variation between the absorbance of free and complexed forms of MO. All Kf values were calculated by an algorithmic treatment applied to the first derivatives of UV spectra in order to avoid any spectral influence of diffraction phenomena. Absorption studies were performed using a UV–visible dual-beam spectrophotometer (Perkin Elmer Lambda 2S) with a 1 cm thick quartz cuvette.

[4] = Formation constants (Kf) by UV–visible spectral displacement method, RAMEB; format: physicochemical; conditions: UV–visible spectral displacement with MO (MO itself by direct titration), SD <10%
Procedure: as §6, §7

[5] = Phase solubility studies, RAMEB
Procedure: as §1, §2, §3, §4, §5

[6] = Formation constants (Kf) by UV–visible spectral displacement method, CRYSMEB; format: physicochemical; conditions: UV–visible spectral displacement with MO (MO itself by direct titration), SD <10%
Procedure: as §6, §7

[7] = Procedure: as §1, §2, §3, §4, §5
[8] = Intrinsic solubility (S0) of PP in water; format: physicochemical; conditions: thermodynamic from solid, absence of CD, 25 °C
Procedure: as §1, §2

[9] = DPPH radical scavenging activity; conditions: for Change of DPPH radical scavenging activity upon complexation with CDs: PP in 10 mM CD solution vs water; for Kinetic behavior of reaction with DPPH•: PP with ethanolic DPPH• solution; for DPPH radical scavenging (antioxidant) activity of PP alone: absence of CD, 1 h (3, 4, 6, 7) or 15 h (1, 2, 5), 25 °C
Procedure: The 2,2-diphenyl-1-picrylhydrazyl (DPPH) radical scavenging activity of PP and their inclusion complexes was measured using the method described by Brand-Williams, Cuvelier, and Berset (1995) with some modifications. 1 mg of PP was dissolved in 50 mL of water, or 10 mM CD solution. 2 mL aliquot of the solution was vigorously mixed with 2 mL of ethanolic DPPH^• solution (0.1 mM). […]. Blank sample was prepared by mixing 2 mL of distilled water with 2 mL of DPPH^• solution. The scavenging activity was calculated using the following equation: […]
where As and A0 are the absorbance of sample and blank sample, respectively.

[10] = Phase solubility studies, β-CD
Procedure: as §1, §2, §3, §4, §5

[11] = β-CD, cited from earlier work
[12] = Formation constants (Kf) by UV–visible spectral displacement method, α-CD; format: physicochemical; conditions: UV–visible spectral displacement with MO (MO itself by direct titration), SD <10%
Procedure: as §6, §7

[13] = Formation constants (Kf) by UV–visible spectral displacement method, HP-β-CD; format: physicochemical; conditions: UV–visible spectral displacement with MO (MO itself by direct titration), SD <10%
Procedure: as §6, §7

[14] = HP-β-CD, cited from earlier work
[15] = set-up: method as in earlier work; conditions: cited from earlier work
[16] = α-CD, cited from earlier work
[17] = RAMEB, cited from earlier work
[18] = CRYSMEB, cited from earlier work

Q: Which “Increase in formulation bulk” value ([1]; HP-β-CD, from CE and molecular weights) does the source give for `O=C(O)/C=C/c1ccc(O)c(O)c1` [Caffeic acid (6), caffeic acid] here?
A: 18

Q: And the Kf ([1]; HP-β-CD, from slope of phase solubility diagram and S0, 25 °C)?
A: 534 M⁻¹

Q: And the “Increase in formulation bulk” value ([2]; CRYSMEB, from CE and molecular weights)?
A: 14

Q: And the Kf ([2]; CRYSMEB, from slope of phase solubility diagram and S0, 25 °C)?
A: 552 M⁻¹

Q: And the “Formation constant (Kf)” value [3]?
A: 318 M⁻¹

Q: And the “Formation constant (Kf)” value [4]?
A: 991 M⁻¹

Q: And the “Increase in formulation bulk” value ([5]; RAMEB, from CE and molecular weights)?
A: 13

Q: And the Kf ([5]; RAMEB, from slope of phase solubility diagram and S0, 25 °C)?
A: 825 M⁻¹

Q: What about the “Formation constant (Kf)” value [6] of the same molecule?
A: 404 M⁻¹

Q: What about the “Increase in formulation bulk” value [7] of the same molecule?
A: 7

Q: And the Kf [7]?
A: 1819 M⁻¹

Q: And the solubility at 24 h [8]?
A: 300 µg/mL (≈ 1670 µM)

Q: And the “Change of DPPH radical scavenging activity upon complexation with CDs” value (from here on “Change”) [9]?
A: kept unchanged

Q: And the “Kinetic behavior of reaction with DPPH•” value [9]?
A: reacted rapidly

Q: And the “DPPH radical scavenging (antioxidant) activity of PP alone” value (“DPPH radical scavenging … of PP alone” for short) [9]?
A: higher antioxidant activity

Q: What about the Kf [10] of the same molecule?
A: 425 M⁻¹

Q: And the “Increase in formulation bulk” value ([10]; β-CD, from CE and molecular weights)?
A: 15

Q: And the “Formation constant (Kf)” value ([11]; ref 26)?
A: 278 M⁻¹

Q: And the “Formation constant (Kf)” value ([11]; ref 27)?
A: 516 M⁻¹

Q: And the “Formation constant (Kf)” value [12]?
A: 1540 M⁻¹

Q: And the “Formation constant (Kf)” value [13]?
A: 526 M⁻¹

Q: What about the “Formation constant (Kf)” value ([14]; ref 28) of the same molecule?
A: 279 M⁻¹

Q: Which “Increase in formulation bulk” value [1] does the source give for `C=CCc1ccc(OC)cc1` [Estragole (2), estragole] here?
A: 32

Q: What about the Kf [1] of the same molecule?
A: 1412 M⁻¹

Q: What about the “Increase in formulation bulk” value [2] of the same molecule?
A: 25

Q: And the Kf [2]?
A: 1512 M⁻¹

Q: What about the “Formation constant (Kf)” value [3] of the same molecule?
A: 987 M⁻¹

Q: What about the “Formation constant (Kf)” value [4] of the same molecule?
A: 1916 M⁻¹

Q: What about the “log P” value [15] of the same molecule?
A: 2.818

Q: What about the “Increase in formulation bulk” value [5] of the same molecule?
A: 26

Q: What about the Kf [5] of the same molecule?
A: 1694 M⁻¹

Q: And the “Formation constant (Kf)” value [6]?
A: 1584 M⁻¹

Q: What about the “Increase in formulation bulk” value [7] of the same molecule?
A: 36

Q: And the Kf [7]?
A: 682 M⁻¹

Q: And the “Change” value [9]?
A: increase in activity

Q: And the “Kinetic behavior of reaction with DPPH•” value [9]?
A: slow kinetic behavior

Q: And the “DPPH radical scavenging … of PP alone” value [9]?
A: reacted little

Q: What about the “Increase in formulation bulk” value [10] of the same molecule?
A: 35

Q: And the Kf [10]?
A: 882 M⁻¹

Q: What about the “Formation constant (Kf)” value [12] of the same molecule?
A: 335 M⁻¹

Q: And the “Formation constant (Kf)” value [13]?
A: 1508 M⁻¹

Q: With `COc1cc(/C=C/C(=O)O)ccc1O` [Ferulic acid (7), ferulic acid] as the molecule, how does the “Formation constant (Kf)” value [3] read?
A: 246 M⁻¹

Q: What about the “Formation constant (Kf)” value ([16]; ref 29) of the same molecule?
A: 1162 M⁻¹

Q: And the “Formation constant (Kf)” value [4]?
A: 908 M⁻¹

Q: And the “log P” value [15]?
A: 1.249

Q: What about the “Formation constant (Kf)” value [6] of the same molecule?
A: 474 M⁻¹

Q: And the “Change” value [9]?
A: kept unchanged

Q: What about the “Kinetic behavior of reaction with DPPH•” value [9] of the same molecule?
A: reacted rapidly

Q: And the “DPPH radical scavenging … of PP alone” value [9]?
A: higher antioxidant activity

Q: And the “Formation constant (Kf)” value ([11]; ref 30)?
A: 205 M⁻¹

Q: What about the “Formation constant (Kf)” value [12] of the same molecule?
A: 1769 M⁻¹

Q: What about the “Formation constant (Kf)” value [13] of the same molecule?
A: 451 M⁻¹

Q: What about the “Formation constant (Kf)” value ([14]; ref 30) of the same molecule?
A: 590 M⁻¹

Q: Which CE mean value ([1]; HP-β-CD, mean over the studied PPs) does the source give for `CC(O)COC[C@H]1O[C@@H]2O[C@H]3[C@H](O)[C@@H](O)[C@@H](O[C@H]4[C@H](O)[C@@H](O)[C@@H](O[C@H]5[C@H](O)[C@@H](O)[C@@H](O[C@H]6[C@H](O)[C@@H](O)[C@@H](O[C@H]7[C@H](O)[C@@H](O)[C@@H](O[C@H]8[C@H](O)[C@@H](O)[C@@H](O[C@H]1[C@H](O)[C@H]2O)O[C@@H]8COCC(C)O)O[C@@H]7COCC(C)O)O[C@@H]6COCC(C)O)O[C@@H]5COCC(C)O)O[C@@H]4COCC(C)O)O[C@@H]3COCC(C)O` (stereo partly drawn) [HP-β-CD, hydroxypropyl-β-cyclodextrin] here?
A: 1.42

Q: With `CN(C)c1ccc(N=Nc2ccc(S(=O)(=O)[O-])cc2)cc1.[Na+]` [MO, methyl orange, reference compound] as the molecule, how does the “Formation constant (Kf)” value [3] read?
A: 2386 M⁻¹

Q: And the “Formation constant (Kf)” value [4]?
A: 15400 M⁻¹

Q: And the “Formation constant (Kf)” value [6]?
A: 3594 M⁻¹

Q: And the “Formation constant (Kf)” value [12]?
A: 7810 M⁻¹

Q: What about the “Formation constant (Kf)” value [13] of the same molecule?
A: 5597 M⁻¹

Q: Which results are given for `C/C=C/c1ccc(OC)cc1` [trans-Anethole (1), trans-anethole]?
A: Formation constant (Kf) [3]: 542 M⁻¹; Formation constant (Kf) ([16]; ref 11): 1163 M⁻¹; Formation constant (Kf) ([16]; ref 23): 710 M⁻¹; Formation constant (Kf) ([17]; ref 11): 1553 M⁻¹; Formation constant (Kf) ([17]; ref 23): 1110 M⁻¹; Formation constant (Kf) [4]: 1815 M⁻¹; log P [15]: 3.096; Formation constant (Kf) ([18]; ref 11): 740 M⁻¹; Formation constant (Kf) ([18]; ref 23): 877 M⁻¹; Formation constant (Kf) [6]: 1039 M⁻¹; Change of DPPH radical scavenging activity upon complexation with CDs [9]: increase in activity; Kinetic behavior of reaction with DPPH• [9]: slow kinetic behavior; DPPH radical scavenging (antioxidant) activity of PP alone [9]: reacted little; Formation constant (Kf) ([11]; ref 11): 630 M⁻¹; Formation constant (Kf) ([11]; ref 23): 497 M⁻¹; Formation constant (Kf) [12]: 927 M⁻¹; Formation constant (Kf) [13]: 845 M⁻¹; Formation constant (Kf) ([14]; ref 11): 1042 M⁻¹; Formation constant (Kf) ([14]; ref 23): 981 M⁻¹

Q: For `OC[C@H]1O[C@@H]2O[C@H]3[C@H](O)[C@@H](O)[C@@H](O[C@H]4[C@H](O)[C@@H](O)[C@@H](O[C@H]5[C@H](O)[C@@H](O)[C@@H](O[C@H]6[C@H](O)[C@@H](O)[C@@H](O[C@H]7[C@H](O)[C@@H](O)[C@@H](O[C@H]8[C@H](O)[C@@H](O)[C@@H](O[C@H]1[C@H](O)[C@H]2O)O[C@@H]8CO)O[C@@H]7CO)O[C@@H]6CO)O[C@@H]5CO)O[C@@H]4CO)O[C@@H]3CO` [β-CD, β-cyclodextrin], which CE mean value [10] is on record?
A: 0.91

Q: Which “Change” value [9] does the source give for isoeugenol [Isoeugenol (3)] here?
A: kept unchanged

Q: And the “Kinetic behavior of reaction with DPPH•” value [9]?
A: reacted rapidly

Q: What about the “DPPH radical scavenging … of PP alone” value [9] of the same molecule?
A: higher antioxidant activity

Q: For low methylated β-cyclodextrin [CRYSMEB], which CE mean value [2] is on record?
A: 1.21

Q: With “randomly methylated β-cyclodextrin [RAMEB]” as the molecule, how does the CE mean value [5] read?
A: 1.70
